Data from US5008265A, “2-amino-7-(alicyclomethyl)-3H,5H,-pyrrolo[3,2-d]pyrimidin-4-ones and pharmaceutical uses and compositions containing the same” (BioCryst, Inc., priority 1989, dated 1991).
pIC50: −log10 of the molar value. Like-named read-outs stand apart in the source and are kept apart here.

Key:
[1] = biological target: T1, purine nucleoside phosphorylase (PNP) (Bos taurus, UniProt P55859); assay: biochemical; type: biochemical, calf
T1 construct: using calf spleen as the enzyme source; from tissue; host or cells: calf spleen
T1 sequence (P55859 1-289): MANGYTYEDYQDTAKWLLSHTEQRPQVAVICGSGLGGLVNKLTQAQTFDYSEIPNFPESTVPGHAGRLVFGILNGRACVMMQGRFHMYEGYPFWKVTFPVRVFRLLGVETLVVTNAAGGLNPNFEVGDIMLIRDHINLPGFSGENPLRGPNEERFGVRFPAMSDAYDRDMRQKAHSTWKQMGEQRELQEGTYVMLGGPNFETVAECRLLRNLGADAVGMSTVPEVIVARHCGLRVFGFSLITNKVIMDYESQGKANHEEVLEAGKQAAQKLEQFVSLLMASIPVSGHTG
Experimental: The compound of Example 8 is tested for enzyme inhibition activity.

plasma inosine = plasma inosine in Lewis rats after intraperitoneal injection (HPLC); type: in vivo; details: 30 mg twice per day, aqueous carrier with ten percent DMSO, vs vehicle controls
Experimental: A pharmaceutical composition for intraperitoneal injection is prepared for testing the compound (IA). An intraperitoneal injection solution containing the compound (IA) is dissolved in an aqueous carrier that contains ten percent DMSO.
The compound (IA) is intraperitoneally injected into Lewis Rats via the test composition of Example 21 to provide 30 mg of the compound (IA), with an injection given twice per day. Controls are used, which receive only the vehicle. At specific times after administration, the animals are sacrificed and plasma samples are prepared. The plasma is extracted with cold 0.5 N HClO4 and neutralized with solid NH4 HCO3. After removal of perchlorate salts, the extract is subjected to HPLC on a reversed phase column (Spherisorb ODSI).
Compounds prepared as in Examples 10-20 are each made into a pharmaceutical formulation in accordance with the preparation of Example 21 and the resultant injectable solutions are tested in accordance with the procedure of Example 22.
A pharmaceutical composition for intraperitoneal injection is prepared for testing the compound (IC). An intraperitoneal injection solution is prepared containing the compound (IC) is dissolved in an aqueous carrier that contains ten percent DMSO. […]

CCRF-CEM cells = assay: potentiation of the toxicity of 2'-deoxyguanosine (d-Guo) in CCRF-CEM cells; type: cell-based; details: read-out: IC50, concentration of the compound required to reduce the increase in cell number between 0 and 72 hours to 50% of that of control cultures, with d-Guo at 5.62 μM, RPMI-1640 medium
Experimental: CCRF-CEM cells are grown in RPMI-1640 medium. To a suspension cultures of these cells, d-Guo at a fixed concentration (5.62 μM) and the compound at varied concentrations are added and the number of cells are determined in a Coulter counter 24, 48, and 72 hours thereafter.

[2] = 1 mM phosphate, calf spleen enzyme, read-out: PNP activity (IC50) at 1 mM phosphate
[3] = read-out: PNP activity (IC50) at 50 mM phosphate, 50 mM phosphate, calf spleen enzyme

SMILES	pIC50 [1, 2]	pIC50 [1, 3]	increase in plasma inosine (plasma inosine)	further results
Nc1nc2c(CC3C4CC5CC(C4)CC3C5)c[nH]c2c(=O)[nH]1 (stereo not shown) [Example 8, 2-amino-7-(2-adamantylmethyl)-3H,5H-pyrrolo[3,2-d]pyrimidin-4-one]	7.05	5.60	significant increase in plasma inosine	
Nc1nc2c(CC3CCCCC3)c[nH]c2c(=O)[nH]1 [Example 56, 2-amino-7-(cyclohexylmethyl) -3H,5H-pyrrolo[3,2-d]-pyrimidin-4-one]				pIC50 (CCRF-CEM cells): 5.70
CC1CCCC(Cc2c[nH]c3c(=O)[nH]c(N)nc23)C1 (stereo not shown) [Example 59, 2-amino-7-(3-methylcyclohexylmethyl)-3H,5H-pyrrolo[3,2-d]pyrimidin-4-one]				pIC50 ([1]; read-out: PNP activity (IC50) at 1 mM phosphate): 7.60

Continued, in another order:

pIC50 [1, 2]	pIC50 [1, 3]	SMILES	increase in plasma inosine (plasma inosine)	further results
7.54	5.74	Nc1nc2c(CC3CCCC3)c[nH]c2c(=O)[nH]1 [Example 41, 2-amino-7-(cyclopentylmethyl)-3H,5H-pyrrolo[3,2-d]-pyrimidin-4-one]	significant increase in plasma inosine	
7.52		Nc1nc2c(CC3CCCCCC3)c[nH]c2c(=O)[nH]1 [Example 70, 2-amino-7-(cycloheptylmethyl)-3H,5H-pyrrolo[3,2-d]pyrimidin-4-one]		pIC50 ([1]; PNP activity (IC50) at 50 mM phosphate, 50 mM phosphate, calf spleen enzyme): 6.08
